Experimental data taken from the NIST ThermoML archive (doi:10.1021/je9008624).
Numbers after ± are expanded uncertainties.

What was measured:
[1] = xn = mol fraction of the nth substance listed; settings: 298.15 K, 101 kPa, Liquid
[2] = refractive index (Na D-line) (dimensionless); xn = mol fraction of the nth substance listed; settings: 298.15 K, 101 kPa, Liquid

With `CCOS(=O)(=O)[O-].CCn1cc[n+](C)c1` [1-ethyl-3-methylimidazolium ethyl sulfate] + CO the mass density ([1]; x2 = 0) was 1236.33 ± 0.8 kg/m3, the mass density ([1]; x2 = 0.0487) was 1232.01 ± 0.77 kg/m3 and the mass density ([1]; x2 = 0.0977) was 1227.32 ± 0.75 kg/m3. The mass density ([1]; x2 = 0.1978) was 1216.77 ± 0.7 kg/m3, the mass density ([1]; x2 = 0.2989) was 1203.48 ± 0.65 kg/m3 and the mass density ([1]; x2 = 0.3991) was 1186.7 ± 0.6 kg/m3. The mass density ([1]; x2 = 0.4991) was 1165.38 ± 0.55 kg/m3, the mass density ([1]; x2 = 0.5993) was 1137.34 ± 0.48 kg/m3 and the mass density ([1]; x2 = 0.7002) was 1098.94 ± 0.4 kg/m3. For the same molecule, the mass density ([1]; x2 = 0.7999) was 1043.62 ± 0.31 kg/m3, the mass density ([1]; x2 = 0.9002) was 953.54 ± 0.27 kg/m3 and the mass density ([1]; x2 = 0.9502) was 884.35 ± 0.36 kg/m3. It also gave a refractive index ([2]; x2 = 0) of 1.47908 ± 0.00066, a refractive index ([2]; x2 = 0.0487) of 1.47873 ± 0.00066 and a refractive index ([2]; x2 = 0.0977) of 1.47637 ± 0.00066. The refractive index ([2]; x2 = 0.1978) was 1.47035 ± 0.00066, the refractive index ([2]; x2 = 0.2989) was 1.46618 ± 0.00065 and the refractive index ([2]; x2 = 0.3991) was 1.46462 ± 0.00065. The refractive index ([2]; x2 = 0.4991) was 1.46284 ± 0.00065, the refractive index ([2]; x2 = 0.5993) was 1.45585 ± 0.00065 and the refractive index ([2]; x2 = 0.7002) was 1.43992 ± 0.00065. The refractive index ([2]; x2 = 0.7999) was 1.41722 ± 0.00064, the refractive index ([2]; x2 = 0.9002) was 1.39225 ± 0.00064 and the refractive index ([2]; x2 = 0.9502) was 1.37316 ± 0.00064.
For `CCCCn1cc[n+](C)c1.F[B-](F)(F)F` [1-butyl-3-methylimidazolium tetrafluoroborate] + CO, the mass density ([1]; x2 = 0) was 1192.78 ± 0.71 kg/m3, the mass density ([1]; x2 = 0.0517) was 1188.58 ± 0.68 kg/m3 and the mass density ([1]; x2 = 0.104) was 1183.87 ± 0.66 kg/m3. The mass density ([1]; x2 = 0.1995) was 1174.09 ± 0.62 kg/m3, the mass density ([1]; x2 = 0.2975) was 1162.14 ± 0.57 kg/m3 and the mass density ([1]; x2 = 0.3993) was 1146.82 ± 0.52 kg/m3. It also gave a mass density ([1]; x2 = 0.5002) of 1127.34 ± 0.48 kg/m3, a mass density ([1]; x2 = 0.599) of 1102.37 ± 0.42 kg/m3 and a mass density ([1]; x2 = 0.6994) of 1067.86 ± 0.35 kg/m3. It also gave a mass density ([1]; x2 = 0.7997) of 1016.59 ± 0.26 kg/m3, a mass density ([1]; x2 = 0.9) of 934.6 ± 0.29 kg/m3 and a mass density ([1]; x2 = 0.9501) of 872.82 ± 0.37 kg/m3. It also gave a refractive index ([2]; x2 = 0) of 1.41831 ± 0.00066, a refractive index ([2]; x2 = 0.0517) of 1.41844 ± 0.00066 and a refractive index ([2]; x2 = 0.104) of 1.41726 ± 0.00066. It also gave a refractive index ([2]; x2 = 0.1995) of 1.41454 ± 0.00066, a refractive index ([2]; x2 = 0.2975) of 1.41296 ± 0.00065 and a refractive index ([2]; x2 = 0.3993) of 1.41485 ± 0.00065. It also gave a refractive index ([2]; x2 = 0.5002) of 1.41652 ± 0.00065, a refractive index ([2]; x2 = 0.599) of 1.41435 ± 0.00065 and a refractive index ([2]; x2 = 0.6994) of 1.40537 ± 0.00065. The refractive index ([2]; x2 = 0.7997) was 1.39145 ± 0.00064, the refractive index ([2]; x2 = 0.9) was 1.37496 ± 0.00064 and the refractive index ([2]; x2 = 0.9501) was 1.36221 ± 0.00064.
`CCCCn1cc[n+](C)c1.F[B-](F)(F)F` [1-butyl-3-methylimidazolium tetrafluoroborate] + COC(=O)OC showed a mass density ([1]; x2 = 0) of 1192.78 ± 0.71 kg/m3, a mass density ([1]; x2 = 0.051) of 1191.17 ± 0.69 kg/m3 and a mass density ([1]; x2 = 0.1014) of 1189.24 ± 0.67 kg/m3. It also gave a mass density ([1]; x2 = 0.1987) of 1184.98 ± 0.64 kg/m3, a mass density ([1]; x2 = 0.2999) of 1179.76 ± 0.6 kg/m3 and a mass density ([1]; x2 = 0.4012) of 1173.39 ± 0.57 kg/m3. For the same molecule, the mass density ([1]; x2 = 0.5) was 1165.72 ± 0.54 kg/m3, the mass density ([1]; x2 = 0.6005) was 1155.89 ± 0.5 kg/m3 and the mass density ([1]; x2 = 0.7007) was 1143.06 ± 0.46 kg/m3. For the same molecule, the mass density ([1]; x2 = 0.8003) was 1125.52 ± 0.41 kg/m3, the mass density ([1]; x2 = 0.9) was 1100.22 ± 0.35 kg/m3 and the refractive index ([2]; x2 = 0) was 1.41831 ± 0.00066. It also gave a refractive index ([2]; x2 = 0.051) of 1.4176 ± 0.00066, a refractive index ([2]; x2 = 0.1014) of 1.41675 ± 0.00066 and a refractive index ([2]; x2 = 0.1987) of 1.41501 ± 0.00066. It also gave a refractive index ([2]; x2 = 0.2999) of 1.41282 ± 0.00065, a refractive index ([2]; x2 = 0.4012) of 1.41049 ± 0.00065 and a refractive index ([2]; x2 = 0.5) of 1.40796 ± 0.00065. For the same molecule, the refractive index ([2]; x2 = 0.6005) was 1.40459 ± 0.00065, the refractive index ([2]; x2 = 0.7007) was 1.39931 ± 0.00064 and the refractive index ([2]; x2 = 0.8003) was 1.39196 ± 0.00064. It also gave a refractive index ([2]; x2 = 0.9) of 1.38162 ± 0.00064.
In the case of `CO` [methanol] + CCCCn1cc[n+](C)c1.F[B-](F)(F)F, the mass density ([1]; x1 = 1) is reported as 786.72 ± 0.49 kg/m3 and the refractive index ([2]; x1 = 1) is reported as 1.32668 ± 0.00064.
`CCOS(=O)(=O)[O-].CCn1cc[n+](C)c1` [1-ethyl-3-methylimidazolium ethyl sulfate] + COC(=O)OC gave a mass density ([1]; x2 = 0) of 1236.33 ± 0.8 kg/m3, a mass density ([1]; x2 = 0.0502) of 1233.17 ± 0.77 kg/m3 and a mass density ([1]; x2 = 0.0999) of 1229.81 ± 0.75 kg/m3. For the same molecule, the mass density ([1]; x2 = 0.1987) was 1223.27 ± 0.71 kg/m3, the mass density ([1]; x2 = 0.2999) was 1215.47 ± 0.67 kg/m3 and the mass density ([1]; x2 = 0.3994) was 1206.15 ± 0.63 kg/m3. The mass density ([1]; x2 = 0.5006) was 1194.57 ± 0.59 kg/m3, the mass density ([1]; x2 = 0.5999) was 1180.67 ± 0.55 kg/m3 and the mass density ([1]; x2 = 0.7001) was 1163.11 ± 0.5 kg/m3. It also gave a refractive index ([2]; x2 = 0) of 1.47908 ± 0.00066, a refractive index ([2]; x2 = 0.0502) of 1.47687 ± 0.00066 and a refractive index ([2]; x2 = 0.0999) of 1.47443 ± 0.00066. The refractive index ([2]; x2 = 0.1987) was 1.46971 ± 0.00066, the refractive index ([2]; x2 = 0.2999) was 1.46385 ± 0.00065 and the refractive index ([2]; x2 = 0.3994) was 1.45729 ± 0.00065. The refractive index ([2]; x2 = 0.5006) was 1.44906 ± 0.00065, the refractive index ([2]; x2 = 0.5999) was 1.43953 ± 0.00065 and the refractive index ([2]; x2 = 0.7001) was 1.42848 ± 0.00065.
`COC(=O)OC` [dimethyl carbonate] + CCCCn1cc[n+](C)c1.F[B-](F)(F)F showed a mass density ([1]; x1 = 1) of 1063.28 ± 0.28 kg/m3 and a refractive index ([2]; x1 = 1) of 1.36647 ± 0.00064.
For `COC(=O)OC` [dimethyl carbonate] + CCOS(=O)(=O)[O-].CCn1cc[n+](C)c1, the mass density ([1]; x1 = 1) was 1063.28 ± 0.28 kg/m3 and the refractive index ([2]; x1 = 1) was 1.36647 ± 0.00064.
